Measured values published in US20110086759A1, “CHEMICAL COMPOUNDS” (SYNGENTA CROP PROTECTION, INC., priority 2007, published 2011).

What was measured:
Assay type in all cases: in vivo
[1] = test system: Alopecurus myosuroides (ALOMY); experiment: Pre-emergence biological efficacy, glasshouse pot test; details: 312 h
How it was run: (§1)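 Compound was applied as a spray one day after sowing, at a final dose of 1000 or 250 g/ha. Plants grew under 14 h light, 24/16 °C and 65% humidity, and injury was assessed on day 13 on a 0–100 scale.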

[2] = test system: Amaranthus retoflexus (AMARE); experiment: as above; details: Amaranthus retroflexus, 312 h
How it was run: as §1

[3] = test system: Echinochloa crus-galli (ECHCG); experiment: as above; details: 312 h
How it was run: as §1

[4] = test system: Ipomea hederaceae (IPOHE); experiment: as above; details: Ipomoea hederacea, 312 h
How it was run: as §1

[5] = test system: Setaria faberi (SETFA); experiment: as above; details: 312 h
How it was run: as §1

[6] = test system: Solanum nigrum (SOLNI); experiment: as above; details: 312 h
How it was run: as §1

[7] = test system: Alopecurus myosuroides (ALOMY); experiment: Post-emergence biological efficacy, glasshouse pot test; details: 312 h
How it was run: (§2)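 Plants were sown in standard soil and grown 8 days in a glasshouse (24/16° C. day/night, 14 hours light, 65% humidity), then sprayed post-emergence at 1000 or 250 g/ha from acetone/water (50:50) with 0.5% Tween 20. Damage was scored visually after 13 days (0 = none, 100 = total).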

[8] = test system: Amaranthus retoflexus (AMARE); experiment: as above; details: Amaranthus retroflexus, 312 h
How it was run: as §2

[9] = test system: Echinochloa crus-galli (ECHCG); experiment: as above; details: 312 h
How it was run: as §2

[10] = test system: Ipomea hederaceae (IPOHE); experiment: as above; details: Ipomoea hederacea, 312 h
How it was run: as §2

[11] = test system: Setaria faberi (SETFA); experiment: as above; details: 312 h
How it was run: as §2

[12] = test system: Solanum nigrum (SOLNI); experiment: as above; details: 312 h
How it was run: as §2

[13] = pre-emergence, 1,000 g/ha, evaluated after 13 days (100=total damage; 0=no damage), read-out: Percentage damage ALOMY
[14] = pre-emergence, 1,000 g/ha, evaluated after 13 days (100=total damage; 0=no damage), read-out: Percentage damage AMARE
[15] = pre-emergence, 1,000 g/ha, evaluated after 13 days (100=total damage; 0=no damage), read-out: Percentage damage ECHCG
[16] = pre-emergence, 1,000 g/ha, evaluated after 13 days (100=total damage; 0=no damage), read-out: Percentage damage IPOHE
[17] = pre-emergence, 1,000 g/ha, evaluated after 13 days (100=total damage; 0=no damage), read-out: Percentage damage SETFA
[18] = pre-emergence, 1,000 g/ha, evaluated after 13 days (100=total damage; 0=no damage), read-out: Percentage damage SOLNI
[19] = post-emergence, 1,000 g/ha, evaluated after 13 days (100=total damage; 0=no damage), read-out: Percentage damage caused to weed species, ALOMY
[20] = post-emergence, 1,000 g/ha, evaluated after 13 days (100=total damage; 0=no damage), read-out: Percentage damage caused to weed species, AMARE
[21] = post-emergence, 1,000 g/ha, evaluated after 13 days (100=total damage; 0=no damage), read-out: Percentage damage caused to weed species, ECHCG
[22] = post-emergence, 1,000 g/ha, evaluated after 13 days (100=total damage; 0=no damage), read-out: Percentage damage caused to weed species, IPOHE
[23] = post-emergence, 1,000 g/ha, evaluated after 13 days (100=total damage; 0=no damage), read-out: Percentage damage caused to weed species, SETFA
[24] = post-emergence, 1,000 g/ha, evaluated after 13 days (100=total damage; 0=no damage), read-out: Percentage damage caused to weed species, SOLNI
[25] = pre-emergence, rate 1,000 g/ha, evaluated after 13 days (100=total damage to plant; 0=no damage), read-out: Percentage damage caused to weed species, ALOMY
[26] = pre-emergence, rate 1,000 g/ha, evaluated after 13 days (100=total damage to plant; 0=no damage), read-out: Percentage damage caused to weed species, AMARE
[27] = pre-emergence, rate 1,000 g/ha, evaluated after 13 days (100=total damage to plant; 0=no damage), read-out: Percentage damage caused to weed species, ECHCG
[28] = pre-emergence, rate 1,000 g/ha, evaluated after 13 days (100=total damage to plant; 0=no damage), read-out: Percentage damage caused to weed species, IPOHE
[29] = pre-emergence, rate 1,000 g/ha, evaluated after 13 days (100=total damage to plant; 0=no damage), read-out: Percentage damage caused to weed species, SETFA
[30] = pre-emergence, rate 1,000 g/ha, evaluated after 13 days (100=total damage to plant; 0=no damage), read-out: Percentage damage caused to weed species, SOLNI
[31] = Rate 1,000 g/ha, post-emergence spray, evaluated after 13 days (100=total damage to plant; 0=no damage to plant), read-out: Percentage damage caused to weed species, post-emergence, ALOMY
[32] = Rate 1,000 g/ha, post-emergence spray, evaluated after 13 days (100=total damage to plant; 0=no damage to plant), read-out: Percentage damage caused to weed species, post-emergence, AMARE
[33] = Rate 1,000 g/ha, post-emergence spray, evaluated after 13 days (100=total damage to plant; 0=no damage to plant), read-out: Percentage damage caused to weed species, post-emergence, ECHCG
[34] = Rate 1,000 g/ha, post-emergence spray, evaluated after 13 days (100=total damage to plant; 0=no damage to plant), read-out: Percentage damage caused to weed species, post-emergence, IPOHE
[35] = Rate 1,000 g/ha, post-emergence spray, evaluated after 13 days (100=total damage to plant; 0=no damage to plant), read-out: Percentage damage caused to weed species, post-emergence, SETFA
[36] = Rate 1,000 g/ha, post-emergence spray, evaluated after 13 days (100=total damage to plant; 0=no damage to plant), read-out: Percentage damage caused to weed species, post-emergence, SOLNI

Row | Structure (SMILES) | pest or weed control at 1000 g/ha [1, 13] [%] | pest or weed control at 1000 g/ha [2, 14] [%] | pest or weed control at 1000 g/ha [3, 15] [%] | pest or weed control at 1000 g/ha [4, 16] [%] | pest or weed control at 1000 g/ha [5, 17] [%] | pest or weed control at 1000 g/ha [6, 18] [%] | pest or weed control at 1000 g/ha [7, 19] [%] | pest or weed control at 1000 g/ha [8, 20] [%] | pest or weed control at 1000 g/ha [1, 25] [%] | pest or weed control at 1000 g/ha [2, 26] [%] | pest or weed control at 1000 g/ha [3, 27] [%] | pest or weed control at 1000 g/ha [4, 28] [%] | pest or weed control at 1000 g/ha [5, 29] [%] | pest or weed control at 1000 g/ha [6, 30] [%] | pest or weed control at 1000 g/ha [7, 31] [%] | pest or weed control at 1000 g/ha [8, 32] [%] | pest or weed control at 1000 g/ha [9, 33] [%] | pest or weed control at 1000 g/ha [10, 34] [%] | pest or weed control at 1000 g/ha [11, 35] [%] | pest or weed control at 1000 g/ha [12, 36] [%] | other results
1 | COC(=O)c1nc(C2CC2)nc(NC(C)c2ccc(C)cc2C)c1Cl (stereo not drawn) [Compound 4-183, 5-Chloro-2-cyclopropyl-4-[1-(2,4-dimethyl-phenyl)ethylamino]-6-methoxycarbonyl-pyrimidine] | 0 | 30 | 0 | 20 | 0 | 0 | 10 | 70 | – | – | – | – | – | – | – | – | – | – | – | – | pest or weed control at 1000 g/ha [9, 21]: 10%; pest or weed control at 1000 g/ha [10, 22]: 60%; pest or weed control at 1000 g/ha [11, 23]: 20%; pest or weed control at 1000 g/ha [12, 24]: 40%
2 | COC(=O)c1nc(C2CC2)nc(N(C)Cc2cccc(C(F)(F)F)c2)c1Cl [Compound 5-76, 5-Chloro-2-cyclopropyl-6-methoxycarbonyl-4-[N-methyl-N-(3-trifluoromethyl-phenylmethyl)-amino]pyrimidine] | – | – | – | – | – | – | – | – | 10 | 80 | 20 | 60 | 30 | 40 | 40 | 100 | 50 | 90 | 80 | 90 | –
3 | COC(=O)c1nc(C2CC2)nc(N[C@H]2c3ccccc3C[C@H]2O)c1Cl [4-37 (1S,2R), 5-Chloro-2-cyclopropyl-4-[(1S, 2R)-2-hydroxy-indan-1-ylamino]-6-methoxycarbonyl-pyrimidine] | 30 | 100 | 40 | 80 | 60 | 90 | 50 | 100 | – | – | – | – | – | – | – | – | – | – | – | – | pest or weed control at 1000 g/ha [9, 21]: 60%; pest or weed control at 1000 g/ha [10, 22]: 50%; pest or weed control at 1000 g/ha [11, 23]: 60%; pest or weed control at 1000 g/ha [12, 24]: 100%
4 | COC(=O)c1nc(-c2ccc(Cl)c([N+](=O)[O-])c2)nc(NCc2ccco2)c1Cl [Compound 219-48, 5-Chloro-2-(4-chloro-3-nitrophenyl)-4-(furan-2-yl-methyl-amino)-6-methoxycarbonyl-pyrimidine] | – | – | – | – | – | – | – | – | 0 | 20 | 0 | 0 | 0 | 0 | 0 | 20 | 0 | 0 | 20 | 30 | –
5 | COC(=O)c1nc(C2CC2)nc(N(Cc2ccccc2)CC(O)c2ccccc2)c1Cl (stereo not drawn) [Compound 155-257, 5-Chloro-2-cyclopropyl-4-[N-(2-hydroxy-2-phenylethyl)-N-phenylmethyl-amino]-6-methoxycarbonyl-pyrimidine] | – | – | – | – | – | – | – | – | 10 | 30 | 10 | 30 | 20 | 10 | 20 | 90 | 0 | 50 | 50 | 80 | –
6 | COC(=O)c1nc(-c2ccc(C)cc2Cl)nc(NCc2ccco2)c1Cl [Compound 238-48, 5-Chloro-2-(2-chloro-4-methylphenyl)-4-(furan-2-yl-methyl-amino)-6-methoxy-carbonylpyrimidine] | – | – | – | – | – | – | – | – | 20 | 100 | 0 | 0 | 10 | 0 | 10 | 100 | 0 | 60 | 0 | 30 | –
7 | COC(=O)c1nc(-c2ccc(Cl)c(N(C)C)c2F)nc(NCc2ccco2)c1Cl [Compound 261-48, 5-Chloro-2-(4-chloro-3-dimethylamino-2-fluorophenyl)-4-(furan-2-yl-methyl-amino)-6-methoxy-carbonylpyrimidine] | – | – | – | – | – | – | – | – | 50 | 100 | 90 | 30 | 90 | 40 | 50 | 100 | 70 | 60 | 90 | 80 | –
8 | COC(=O)c1nc(C2CC2)nc(NCC2CCCCC2)c1Cl [Compound 4-49, 5-Chloro-4-cyclohexylmethyl-amino-2-cyclo-propyl-6-methoxy-carbonylpyrimidine] | 0 | 10 | 0 | 40 | 0 | 30 | 10 | 100 | – | – | – | – | – | – | – | – | – | – | – | – | pest or weed control at 1000 g/ha [9, 21]: 40%; pest or weed control at 1000 g/ha [10, 22]: 70%; pest or weed control at 1000 g/ha [11, 23]: 40%; pest or weed control at 1000 g/ha [12, 24]: 70%
